According to patent publication US8741840B2, “BMP-7 for use in treating neointimal hyperplasia” (Washington University, priority 2008, dated 2014):

B1: Noggin: bone morphogenetic protein specific inhibitor (BMP-2 antagonist), from Pepro Tech. (protein, UniProt Q13253 28-232, looked up)
Noggin: QHYLHIRPAPSDNLPLVDLIEHPDPIFDPKEKDLNETLLRSLLGGHYDPGFMATSPPEDRPGGGGGAAGGAEDLAELDQLLRQRPSGAMPSEIKGLEFSEGLAQGKKQRLSKKLRRKLQMWLWSQTFCPVLYAWNDLGSRFWPRYVKVGSCFSKRSCSVPEGMVCKPSKSVHLTVLRWRCQRRGGQRCGWIPIQYPIISECKCSC

Legend:
[1] = test system: LDLR−/− high fat fed mice; test: Histology of proximal aorta (alizarin red): calcified atherosclerotic plaques; format: in vivo, mouse; conditions: for size of the atherosclerotic lesions: proximal aorta (FIG. 3); for plaque associated calcium deposition: proximal aorta, alizarin red stain (FIG. 3)
Excerpt: Tissue Preparation: Resected specimens were flash frozen in liquid nitrogen, then divided as follows: the heart, ascending aorta and aortic arch were separated from the descending aorta, and bisected sagittally through the aortic outflow tract. The descending aorta was bisected coronally, approximately halfway along its length. In order to visualize calcification in the tissue sections, Slices (5 μm thick) were cut and stained with von Kossa and Trap staining.
Additional mice were enrolled to the study for qualitative analysis of aortas to quantitate the effects of the treatments, because aortas of the experimental animals were destroyed by the technique of quantifying the aortic calcium content. Vascular calcification was largely aortic atherosclerotic plaque associated (FIG. 3), and punctate calcifications in the tunica media were observed. Panel A: Large lipid laden plaque (between arrows) in proximal aorta of a sham-operated high fat fed LDLR−/− mouse. Thick arrows identify focal calcifications in the base of the plaque. Panel B: A large calcified plaque (between arrows) in the proximal aorta of a CKD high fat fed LDLR−/− mouse. Panel C: A large lipid laden plaque (between arrows) in the proximal aorta of a BMP-7 treated CKD high fat fed LDLR−/− mouse. The stain is alizarin red. Magnification is 400× in A-C.

[2] = Blood tests: serum biochemical parameters in the various groups of animals; format: in vivo, mouse; conditions: serum; LDLR-/-, fat diet, CKD, 28 weeks post natal; BMP-7 10 μg/kg IP weekly or binder 3% in diet
Experimental: Animals were sacrificed under anesthesia 28 weeks post natal. At the time of sacrifice, blood was taken by intracardiac stab, and the heart and aorta dissected en bloc. The BMP-7 treated group received intraperitoneal injection of BMP-7 10 μg/kg dry weight once weekly in 100 μl vehicle [mannitol (5% w/v), NaAcetate buffer (20 mM, pH 4.0-4.5), sterile water].
Animals were allocated to one of seven CKD high fat fed groups after the second surgery: Other control Groups included LDLR−/− sham operated mice on chow diet, and LDLR−/− mice with CKD on chow diet. C57B16 WT mice fed chow served as the normal benchmark source. […] Group 1 were LDLR−/− mice on the high fat diet sacrificed at 22 weeks. Group 2 were LDLR−/− mice with CKD fed the high fat diet and treated weekly from 22 to 28 weeks with vehicle IP. […] Group 3 was the first treatment group. These were LDLR−/− mice with CKD on high fat diet that received BMP-7 treatment (10 μg/kg IP weekly). Group 4 were LDLR−/− mice with CKD on high fat diet treated with sevelamer CO3 1%. Group 5 were LDLR−/− mice with CKD on high fat diet treated with sevelamer CO3 3%. […] Once the mice were randomized into groups, they were allowed to develop calcification from weeks 14 through weeks 22 post natal. Therapy was initiated at 23 weeks postnatal and continued until week 28 postnatal at which time the mice were examined.
Blood tests: Serum was analyzed on the day of blood draw for blood urea nitrogen [BUN], cholesterol, calcium and phosphate by standard laboratory methods. Before initiation of therapy, blood was obtained through saphenous vein. At the time of sacrifice, blood was obtained through intracardiac stab.

[3] = test system: human vascular smooth muscle cells (hVSMC) isolated from atherosclerotic donors; test: Phosphorus stimulated matrix mineralization (matrix Ca content) in hVSMC cultures; format: cell-based; conditions: Noggin 10-100 ng/ml added to high phosphorus media (FIG. 6A)
Experimental: (§1) Cell Culture: Human adult aorta were obtained from seven cadaveric organ donors rejected because of atherosclerosis by Mid-America Transplant Services (St. Louis, Mo.) and enzymatically digested to obtain Human Smooth Muscle Cells (HSMC). Medial tissue was separated from the adventia and intima and digested with collagenase type I (Worthington, Lakewood, N.J.) 2 mg/ml for 1 hr, and washed with Hank's balanced salt solution (HBSS). Further digestion followed with collagenase type II 1 mg/ml (Worthington, Lakewood, N.J.) and elastase 0.25 mg/ml (Worthington, Lakewood, N.J.) for 4 hrs. Cell suspensions were washed twice with HBSS and cultured in T-75 flasks for three weeks in a 95%/5% air/CO2 humidified environment at 37° C. The growth medium used was DMEM containing […] glucose (high glucose), 10% fetal bovine serum (FBS, Atlas, Fort Collins, Colo.), 1 mM sodium pyruvate, 100 units/ml Penicillin and […] Streptomycin (Sigma, St Louis, Mo.). Cell purity was assessed by positive immunostaining for α-smooth muscle actin and calponin and for the absence of von Willebrand factor. In all experimental protocols, cells were seeded at 1×10^5 cells/well in six-well plates. Medium was changed on the first day and every third day thereafter. In all cases, cells used were between passages two and five (Table 3).
Induction of Calcification: At the time of confluence, cells were switched to mineralization medium consisting of DMEM supplemented with 1 or 2 mM Pi. For cells exposed to BMP-7 treatment, fresh mineralization medium containing either vehicle (mannitol, acetic acid, acetate) or BMP-7 in vehicle was added at 0.1, 1.0, 10, or 100 ng/ml. The medium was changed every two or three days. […] Calcium content was quantified and normalized to cellular protein as described. (Jono 2000; Moe S. M. et al., Kidney Int 67:2295-2304, 2005)^11;52
In vitro matrix mineralization. […]

hVSMC = test: RT-PCR of osteoblastic differentiation program genes in hVSMC; format: cell-based, human; conditions: Noggin 100 ng/ml, high phosphorus media (FIG. 6B)
Experimental: as §1
RT-PCR: RNA was extracted from cell cultures using RNeasy Mini Kits (Qiagen, Valencia, Calif.). Semi-quantitative RT-PCR was conducted using Roche 1st Strand cDNA Synthesis Kit (Indianapolis, Ind.) and PCR kit from Invitrogen (Grand Island, N.Y.) according to manufacturer's instructions using a two-step method. 1 μg of total RNA was reverse transcribed and random primers were added for 60 min at 42° C., prior to PCR. Forward and Reverse primers (Table 4) were added and the reactions subjected to PCR for 20-35 cycles. The number of cycles necessary to amplify cDNA but remain within the exponential amplification range was determined for each primer set. GAPDH was used as internal standard to assess loading. Genomic contamination was assessed by heat inactivation of the reverse transcriptase prior to RT-PCR. Primers were designed using Vector NTI soft ware (Invitrogen, Grand Island, N.Y.) and optimal conditions for each prime pairs were determined (Table 4). A Perkin-Elmer DNA Thermal Cycler was used to perform the reaction. Products were separated on a 2% agarose E-gel (Invitrogen, Grand Island, N.Y.), and visualized with ethidium bromide. The band intensity was analyzed first by scanning the gel on a Typhoon 9410 gel imager (Amersham Biosciences), quantified by using TotalLab software v2003.03 (Nonlinear Dynamics, Durham, N.C.) and normalized for loading by comparison to GAPGH. Negative controls were performed by inactivating the reverse transcriptase by boiling for 5 min prior to RT-PCR to insure that genomic DNA was not amplified.
Stimulation of osteoblastic differentiation through osterix induction. […] Osterix (E) was only weakly expressed in basal culture conditions. Phosphorus stimulated transcription of osterix (E). […] The data in A-E were normalized to the expression level in basal culture conditions and expressed as fold induction, mean±SEM, n=3. In: Principles of Bone Biology, edited by Bilezikian J P et al., New York, Academic Press, 1996, pp 51-67; Hoffmann H M et al., Proc. Nat. […]

Row | Molecule | size of the atherosclerotic lesions [1] | plaque associated calcium deposition [1] | Phosphorus [2] | matrix mineralization stimulated by phosphorus [3] | phosphorus induced osterix expression (hVSMC)
1 | O=C([O-])[O-].[Ca+2] [CaCO3] | did not decrease the size of the atherosclerotic lesions | diminished plaque associated calcium deposition | – | – | –
2 | O=C([O-])[O-].O=C([O-])[O-].O=C([O-])[O-].[La+3].[La+3] [Lanthanum, LaCO3] | did not decrease the size of the atherosclerotic lesions | diminished plaque associated calcium deposition | 9.7 ± .4 mg/dL | – | –
3 | B1 | – | – | – | inhibited matrix mineralization stimulated by phosphorus | blocked phosphorus induced osterix expression
